{"source": "paper PMC8443589", "about": "“Modelling human liver fibrosis in the context of non-alcoholic steatohepatitis using a microphysiological system” (Communications Biology, 2021)", "key": {"[1]": {"tested_on": "liver MPS NASH model (PHH, KC and HSC co-cultures)", "assay": "Cue study: RNAseq transcriptomic profile, enriched pathways", "type": "cell-based, human", "settings": "GO term enrichment and cluster analysis, 14 days", "method": "Fig. 4 Systems biology interrogation of liver MPS NASH model to determine physiologically relevant cues that promote transcriptional changes to mimic advanced NASH disease state. […]\nThe MPS LC12 plates consists of 12 individual bioreactors that contain pneumatically driven micro-pumps to recirculate cell culture medium through a collagen-coated scaffold. […] Microtissues were then cultured in either HEP-Lean or HEP-Fat medium, both media’s are proprietary to CN Bio Innovations Ltd. The HEP-Fat medium is a derivative of the HEP-LEAN medium and contains a mixture of saturated and unsaturated FFAs, as well as physiologically relevant quantities of insulin and sugars. […]\nPrior to RNA-seq integrity and quantity of RNA were assessed by Fragment Analyzer high sensitivity RNA kit (Agilent Technologies, USA). […] Quality and quantity of libraries were assessed by Fragment Analyzer standard sensitivity NGS kit (Agilent Technologies, USA). […] The sample pools were quantified with a Qubit Fluorometer (ThermoFisher Scientific, USA) using the dsDNA HS kit (ThermoFisher Scientific, USA), further diluted and sequenced to >13 M paired reads/sample on NextSeq500 (Illumina, USA) with PE 75 base pair (bp) read length setting.\nThe sequencing data were demultiplexed using Illumina bcl2fastq2-v2.16. The quality of the reads was assessed using FastQC (www.bioinformatics.babraham.ac.uk/projects/fastqc). […]"}, "[2]": {"tested_on": "liver MPS NASH model (PHH, KC and HSC co-cultures)", "assay": "Cue study: albumin production (ELISA)", "type": "cell-based, human"}}}
{"substance": "TGFβ: recombinant TGF beta 1 protein (Abcam), 1 ng/ml cue", "values": [{"measurement": "enriched pathways / gene clusters induced", "setting": "[1]", "value": "induced a wide range of clusters associated with collagen formation and matrix reorganisation"}, {"measurement": "Albumin production", "setting": "[2]", "value": "reduced albumin production"}]}
